In ChEMBL document CHEMBL4308867, “Discovery of naldemedine: A potent and orally available opioid receptor antagonist for treatment of opioid-induced adverse effects” (Bioorg Med Chem Lett, 2019):
pKi: −log10 of the molar value.

Tests used:
[1] = target: T1, Delta-type opioid receptor (Homo sapiens, UniProt P41143); experiment: Displacement of [3H]-DADLE from recombinant human delta-opioid receptor expressed in HEK293 cells; assay type: cell-based
[2] = target: T2, Mu-type opioid receptor (Homo sapiens, UniProt P35372); experiment: Displacement of [3H]-DAMGO from recombinant human mu-opioid receptor expressed in CHOK1 cells; assay type: cell-based
T2 sequence (P35372 whole entry): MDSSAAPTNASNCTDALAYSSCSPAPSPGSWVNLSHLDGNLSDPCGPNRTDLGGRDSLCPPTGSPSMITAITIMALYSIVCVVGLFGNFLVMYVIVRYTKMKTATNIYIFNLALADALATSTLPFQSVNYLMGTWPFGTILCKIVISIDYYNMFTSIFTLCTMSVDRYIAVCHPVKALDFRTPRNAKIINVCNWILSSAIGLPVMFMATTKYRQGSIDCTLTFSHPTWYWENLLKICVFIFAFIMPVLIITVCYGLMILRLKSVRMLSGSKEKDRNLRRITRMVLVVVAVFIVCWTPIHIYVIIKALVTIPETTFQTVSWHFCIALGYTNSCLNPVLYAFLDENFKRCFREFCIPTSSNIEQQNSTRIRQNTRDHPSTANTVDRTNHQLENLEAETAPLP

[3] = Oral bioavailability in rat at 1 mg/kg administered as cassette dose; assay type: ADME, organism-based; settings: in vivo
[4] = Stability in plasma (unknown origin) assessed as parent compound remaining after 24 hrs; assay type: ADME, cell-free; settings: read-out: Stability
[5] = Brain to blood partition coefficient, Kp of the compound in rat at 1 mg/kg, po administered as cassette dose; assay type: ADME, organism-based
[6] = Total clearance in rat at 1 mg/kg, po administered as cassette dose; assay type: ADME, organism-based; settings: in vivo
[7] = Chemical stability of the compound; assay type: physicochemical
[8] = Cmax in rat brain at 1 mg/kg, po administered as cassette dose; assay type: ADME, organism-based; parameters: dose 1 mg/kg, route oral
[9] = Stability in rat microsomes assessed as parent compound remaining at 0.5 uM measured after 0.5 hrs; assay type: ADME, Microsome; settings: read-out: Stability
[10] = Stability in human microsomes assessed as parent compound remaining at 0.5 uM measured after 0.5 hrs; assay type: ADME, Microsome; settings: read-out: Stability
[11] = Selectivity ratio of ED50 for inhibition of morphine-induced analgesia in po dosed rat to ED50 for inhibition of morphine-induced emesis/vomiting in po dosed ferret; assay type: functional
[12] = species on record: Rattus norvegicus; experiment: […]; assay type: functional; settings: po
[13] = target: T1, Delta-type opioid receptor; experiment: Antagonist activity at delta-opioid receptor (unknown origin) by [35S]-GTPgammaS binding assay; assay type: functional
[14] = test system: Rattus norvegicus; experiment: Antianalgesic activity in po dosed rat assessed as inhibition of morphine-induced analgesia by tail-flick test; assay type: functional
[15] = test system: Mustela putorius furo; experiment: In vivo antagonist activity at mu-opioid receptor in po dosed ferret assessed as inhibition of morphine-induced emesis/vomiting; assay type: functional
[16] = target: T2, Mu-type opioid receptor; experiment: Antagonist activity at mu-opioid receptor (unknown origin) by [35S]-GTPgammaS binding assay; assay type: functional
[17] = test system: Rattus norvegicus; experiment: Selectivity ratio of ED50 for inhibition of morphine-induced analgesia in po dosed rat to ED50 for inhibition of morphine-induced constipation in po dosed rat; assay type: functional

T1 sequence (P41143 whole entry): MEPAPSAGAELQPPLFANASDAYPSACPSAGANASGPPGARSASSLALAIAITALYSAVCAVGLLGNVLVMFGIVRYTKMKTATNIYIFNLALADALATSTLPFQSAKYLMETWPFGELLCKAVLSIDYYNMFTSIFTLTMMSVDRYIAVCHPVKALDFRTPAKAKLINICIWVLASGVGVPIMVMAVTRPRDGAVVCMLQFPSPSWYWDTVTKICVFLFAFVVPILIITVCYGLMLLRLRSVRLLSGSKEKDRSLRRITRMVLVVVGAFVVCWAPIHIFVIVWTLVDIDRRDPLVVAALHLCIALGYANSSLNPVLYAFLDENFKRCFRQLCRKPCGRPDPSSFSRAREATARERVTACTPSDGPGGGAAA

Row | SMILES | pKi [1] | pKi [2] | bioavailability [3] [%] | remaining at 24 h [4] [%] | Kp [5] | CL/F [6] [mL/min/kg] | Stability [7] | Cmax [8] [ng/mL] | remaining at 0.5 h, 0.5 µM [9] [%] | remaining at 0.5 h, 0.5 µM [10] [%] | Ratio ED50 [11] | ED50 [12] [mg/kg] | Ke [13] [nM] | ED50 [14] [mg/kg] | ED50 [15] [mg/kg] | Ke [16] [nM] | Ratio ED50 [17]
1 | CC(C)(NC(=O)C1=C(O)[C@@H]2Oc3c(O)ccc4c3[C@@]23CCN(CC2CC2)[C@H](C4)[C@]3(O)C1)C(=O)O | 7.93 | 7.34 | 0.52 | > 80 | 0.04 | 28 | Stable | 0.055 | – | – | – | – | – | – | – | – | –
2 | Cc1n[nH]c2c1C[C@@]1(O)[C@H]3Cc4ccc(O)c5c4[C@@]1(CCN3CC1CC1)[C@H]2O5 | 8.92 | 7.62 | 26.9 | – | 0.25 | 199 | – | 2.2 | 81 | 98 | – | – | – | – | – | – | –
3 | O=C(Nc1ccccc1)C1=C(O)[C@@H]2Oc3c(O)ccc4c3[C@@]23CCN(CC2CC2)[C@H](C4)[C@]3(O)C1 | 7.70 to 8.17 | 8.39 to 9.00 | 57 | > 80 | – | 36 | Stable | – | 78 | 89 | 413 | 0.99 | 3.6 | 16.5 | 0.04 | 3.2 | 17
4 | Cc1noc(C(C)(C)NC(=O)C2=C(O)[C@@H]3Oc4c(O)ccc5c4[C@@]34CCN(CC3CC3)[C@H](C5)[C@]4(O)C2)n1 | 8.24 | 8.14 | 11 | > 80 | 0.04 | 29 | Stable | 0.29 | 99 | 92 | – | – | – | – | – | – | –
5 | O=C(O)c1ccc2c3c([nH]c2c1Cl)[C@@H]1Oc2c(O)ccc4c2[C@@]12CCN(CC1CC1)[C@H](C4)[C@]2(O)C3 | 9.00 | 7.72 | 0.2 | – | 0.03 | 18.1 | – | 0.032 | 100 | 97 | – | – | – | – | – | – | –
6 | C[C@H](CO)NC(=O)C1=C(O)[C@@H]2Oc3c(O)ccc4c3[C@@]23CCN(CC2CC2)[C@H](C4)[C@]3(O)C1 | 7.74 | 7.71 | 3.4 | > 80 | 0.05 | 27 | Stable | 0.21 | – | – | – | – | – | – | – | – | –
7 | O=C(NCc1ccccc1)C1=C(O)[C@@H]2Oc3c(O)ccc4c3[C@@]23CCN(CC2CC2)[C@H](C4)[C@]3(O)C1 | 7.80 | 8.96 | 46 | > 80 | 0.17 | 61 | Stable | 12 | 14 | 94 | – | – | – | – | – | – | –
8 | COC(=O)C(C)(C)NC(=O)C1=C(O)[C@@H]2Oc3c(O)ccc4c3[C@@]23CCN(CC2CC2)[C@H](C4)[C@]3(O)C1 | 8.40 | 7.78 | 68 | > 80 | 0.08 | 25 | Stable | 5.1 | 103 | 101 | – | – | – | – | – | – | –
9 | CC(C)(NC(=O)C1=C(O)[C@@H]2Oc3c(O)ccc4c3[C@@]23CCN(CC2CC2)[C@H](C4)[C@]3(O)C1)C(=O)NS(C)(=O)=O | 8.26 | 7.03 | 0.77 | > 80 | 0.01 | 15 | Stable | 0.018 | 99 | 104 | – | – | – | – | – | – | –
10 | CC(C)NC(=O)C1=C(O)[C@@H]2Oc3c(O)ccc4c3[C@@]23CCN(CC2CC2)[C@H](C4)[C@]3(O)C1 | 8.13 to 8.70 | 8.28 to 8.47 | 50 | > 80 | – | 41 | Stable | – | 88 | 95 | 266 | 0.57 | 3.8 | 10.7 | 0.04 | 6.2 | 19
11 | O=C(Nc1ccccn1)C1=C(O)[C@@H]2Oc3c(O)ccc4c3[C@@]23CCN(CC2CC2)[C@H](C4)[C@]3(O)C1 | 8.17 | 8.01 | 55 | > 80 | 0.05 | 25 | Stable | 5.6 | 97 | 98 | – | – | – | – | – | – | –
12 | N#Cc1ccc(NC(=O)C2=C(O)[C@@H]3Oc4c(O)ccc5c4[C@@]34CCN(CC3CC3)[C@H](C5)[C@]4(O)C2)cc1 | 7.95 | 8.29 | 12 | > 80 | 0.03 | 8.5 | Stable | 1.3 | 92 | 103 | – | – | – | – | – | – | –
13 | COC(=O)C1(NC(=O)C2=C(O)[C@@H]3Oc4c(O)ccc5c4[C@@]34CCN(CC3CC3)[C@H](C5)[C@]4(O)C2)CC1 | 8.01 | 8.80 | 11 | > 80 | 0.06 | 30 | Stable | 1.3 | 103 | 100 | >3846 | 0.57 | 7.6 | > 100 | 0.026 | 4.1 | >175
14 | O=C(O)c1ccc2c3c([nH]c2c1)[C@@H]1Oc2c(O)ccc4c2[C@@]12CCN(CC1CC1)[C@H](C4)[C@]2(O)C3 | 9.21 | 7.74 | 0.1 | – | 0.03 | 71.8 | – | 0.023 | 97 | 98 | – | – | – | – | – | – | –
15 | O=C(Nc1ccc2cc[nH]c2c1)C1=C(O)[C@@H]2Oc3c(O)ccc4c3[C@@]23CCN(CC2CC2)[C@H](C4)[C@]3(O)C1 | 7.72 | 8.62 | 13 | > 80 | 0.04 | 28 | Stable | 0.56 | 86 | 93 | – | – | – | – | – | – | –
16 | O=C(C1=C(O)[C@@H]2Oc3c(O)ccc4c3[C@@]23CCN(CC2CC2)[C@H](C4)[C@]3(O)C1)N1CCCC1 | 8.13 | 8.40 | 18 | > 80 | 0.22 | 102 | Stable | 3 | 24 | 99 | – | – | – | – | – | – | –
17 | Cc1nc(N)nc2c1C[C@@]1(O)[C@H]3Cc4ccc(O)c5c4[C@@]1(CCN3CC1CC1)[C@H]2O5 | 8.68 | 8.07 | 42.5 | – | 0.31 | 220 | – | 4.6 | 58 | 92 | – | – | – | – | – | – | –
